Assay results taken from patent publication US20130315825A1, “TRICYCLIC HETEROAROMATIC COMPOUNDS AS ALPHA-SYNUCLEIN LIGANDS” (Washington University, priority 2012, published 2013).
Like-named read-outs stand apart in the source and are kept apart here.

Columns and labels:
Aβ plaques in AD brain = conditions: cited from earlier work; for Kd: binding to Aβ plaques
[1] = target: Human PD brain homogenate (Homo sapiens, UniProt P37840); conditions: [125I]SIL23 competition, human PD brain homogenate (insoluble fraction); 95% confidence intervals in parentheses
Procedure: Samples were used from both male and female subjects.
(§1) Reactions were incubated at 37° C. for 2 h before quantifying bound radioligand as described above for the saturation binding assay. All data points were performed in triplicate. Data were analyzed using Graphpad Prism software (version 4.0) to obtain EC50 values by fitting the data to the equation Y=bottom+(top-bottom)/(1+10^(x-10gEC^50^)).

α-synuclein fibrils [2] = target: T1, α-synuclein fibrils (Homo sapiens, UniProt P37840); conditions: [125I]SIL23 competition, 95% confidence intervals in parentheses
Procedure: (§2) The prepared fibril mixture was centrifuged at 15,000×g for 15 min to prepare fibrils for binding assays.
as §1
Data points represent mean+/−s.d. (n=3).

Aβ1-42 fibrils [3] = target: T2, Aβ1-42 fibrils (Homo sapiens, UniProt P05067); assay: [125I]SIL23 competitive binding assay, Aβ1-42 fibrils; conditions: [125I]SIL23 competition, 95% confidence intervals in parentheses
T2 construct: Synthetic Aβ1-42 peptide (1 mg) (Bachem, Torrance, Calif.); purchased Bachem, Torrance, Calif; host or cells: synthetic peptide

α-synuclein fibrils [4] = target: T1, α-synuclein fibrils; assay: ThT competitive binding assay with α-synuclein fibrils
[5] = Ex vivo biodistribution in Sprague-Dawley rats; conditions: for brain uptake: male SD rats (n=4);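 on all read-outs here: four rats in each time-point group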
Procedure: Group of rats (n=4) were used for each time point. […] The whole brain was quickly removed and dissected into segments consisting of brain stem, thalamus, striatum, hippocampus, cortex, and cerebellum. The remainder of the brain was also collected to determine total brain uptake. […] Tissues were weighed, and the % I.D./g for each tissue was calculated.

Aβ1-42 fibrils [6] = target: T2, Aβ1-42 fibrils; assay: [125I]SIL23 saturation binding, synthetic Aβ1-42 fibrils
Procedure: Synthetic Aβ1-42 peptide (1 mg) (Bachem, Torrance, Calif.) was first dissolved in 50 μl DMSO. An additional 925 μl of mQ-H2O was added. […] To determine the concentration of fibrils, the fibril reaction mix was centrifuged at 15,000×g for 15 min to separate fibrils from monomer. The concentration of Aβ monomer in the supernatant was determined in a BCA protein assay using a BSA standard curve that contained DMSO at a percentage equivalent to the samples.
as §2

tau fibrils = target: T3, tau fibrils (Homo sapiens, UniProt P10636); assay: [125I]SIL23 saturation binding, recombinant tau fibrils
T3 construct: made in house; host or cells: BL21(DE3)RIL E. coli
Procedure: Recombinant tau protein was produced in E. Coli.
Filters containing the bound ligand were mixed with 150 μl of Optiphase Supermix scintillation cocktail (PerkinElmer) and counted immediately. All data points were performed in triplicate.

T2 sequence (P05067 672-713 limits assumed): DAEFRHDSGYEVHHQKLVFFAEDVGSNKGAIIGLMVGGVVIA
T3 sequence (P10636 560-692): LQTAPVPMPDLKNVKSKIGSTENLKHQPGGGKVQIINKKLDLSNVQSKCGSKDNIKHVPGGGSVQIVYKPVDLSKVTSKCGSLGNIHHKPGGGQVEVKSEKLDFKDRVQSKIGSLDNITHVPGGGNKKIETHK

## CNc1ccc(/C=C/c2ccc(OCCOCCOCCF)nc2)cc1 [AV-45]
Aβ plaques in AD brain; AV-45 binding in AD brain
  average Bmax / binding site density: 8.8 pmol/mg protein
Aβ plaques in AD brain
  Kd: 3.7 nM

## CN(C)c1ncc(/C=C/c2nc3ccc(OCCF)cc3o2)s1 [BF227]
[1]
  Ki: 138 nM
α-synuclein fibrils [2]
  Ki: 39.7 nM

## O=C(O)c1cc(/N=N/c2ccc(-c3ccc(/N=N/c4ccc(O)c(C(=O)O)c4)cc3)cc2)ccc1O [Chrysamine G]
[1]
  Ki: 367 nM
α-synuclein fibrils [2]
  Ki: 432 nM

## CNc1ccc(-c2nc3ccc(O)cc3s2)cc1 [PIB]
[1]
  Ki: 99.2 nM
Aβ plaques in AD brain; PiB binding in AD brain
  average Bmax / binding site density: 1407 pmol/g wet weight
Aβ plaques in AD brain
  Kd: 2.5 nM
α-synuclein fibrils [2]
  Ki: 116 nM

## COc1ccc2c(c1)Sc1cc([N+](=O)[O-])ccc1N2 [SIL5, 3-methoxy-7-nitro-10H-phenothiazine]
Aβ1-42 fibrils [3]
  Ki: 110 nM

## COc1ccc2c(c1)Sc1cc(C(F)(F)F)ccc1N2 [TZ5B-71, 3-methoxy-7-(trifluoromethyl)-10H-phenothiazine]
α-synuclein fibrils [4]
  IC50: 742.7 ± 1.1 nM
  Ki: 178 nM

## COc1ccc2c(c1)Sc1cnccc1N2 [TZ5B-79-1-1, 8-methoxy-5H-benzo[b]pyrido[4,3-e][1,4]thiazine]
α-synuclein fibrils [4]
  IC50: 2231 ± 1.2 nM
  Ki: 536 nM

## COc1ccc2c(c1)Sc1cccnc1N2 [TZ5B-95-1, 7-methoxy-10H-benzo[b]pyrido[2,3-e][1,4]thiazine]
α-synuclein fibrils [4]
  IC50: 6624 ± 1.4 nM
  Ki: 1590 nM

## COc1cccc2c1N(C(C)=O)c1ccc(C(F)(F)F)cc1S2 [TZ5B-145-2, 1-(1-methoxy-7-(trifluoromethyl)-10H-phenothiazin-10-yl)ethanone]
α-synuclein fibrils [4]
  IC50: 1048 ± 1.9 nM
  Ki: 252 nM

## COc1ccc2c(c1)Nc1ccc(C(F)(F)F)cc1S2 [TZ5B-159-1, 2-methoxy-7-(trifluoromethyl)-10H-phenothiazine]
α-synuclein fibrils [4]
  IC50: 1082 ± 2.4 nM
  Ki: 260 nM

## COc1ccc2c(c1)Nc1ccc([N+](=O)[O-])cc1S2 [TZ10-1-2-1, 2-methoxy-7-nitro-10H-phenothiazine]
α-synuclein fibrils [4]
  IC50: 152 ± 1.1 nM
  Ki: 36.5 nM

## COc1cccc2c1Nc1ccc([N+](=O)[O-])cc1S2 [TZ10-27-1, 1-methoxy-7-nitro-10H-phenothiazine]
α-synuclein fibrils [4]
  IC50: 1426 ± 1.2 nM
  Ki: 342 nM

## COc1ccc2c(c1)Nc1cc([N+](=O)[O-])ccc1N2 [TZ16-133-2, 2-methoxy-8-nitro-5,10-dihydrophenazine]
α-synuclein fibrils [4]
  Ki: > 1000 nM

## CC(=O)N1c2ccccc2N(C(C)=O)c2ccccc21 [TZ16-147-3, 1,1′-(phenazine-5,10-diyl)diethanone]
α-synuclein fibrils [4]
  Ki: > 1000 nM

## COc1ccc2c(c1)Oc1cc([N+](=O)[O-])ccc1N2 [TZ-2-33, 3-methoxy-7-nitro-10H-phenoxazine]
α-synuclein fibrils [4]
  IC50: 106.9 ± 1 nM
  Ki: 25.7 nM

## COc1ccc2c(c1)Nc1ccc([N+](=O)[O-])cc1O2 [TZ-2-39, 2-methoxy-7-nitro-10H-phenoxazine]
α-synuclein fibrils [4]
  IC50: 39.6 ± 1.2 nM
  Ki: 9.5 nM

## COc1ccc2c(c1)Oc1cc([N+](=O)[O-])cnc1N2 [TZ-2-48, 7-methoxy-3-nitro-10H-benzo[b]pyrido[2,3-e][1,4]-oxazine]
α-synuclein fibrils [4]
  IC50: 111.8 ± 1.1 nM
  Ki: 26.8 nM

## COc1ccc2c(c1)Nc1c(cccc1[N+](=O)[O-])O2 [TZ-2-52, 8-methoxy-1-nitro-10H-phenoxazine]
α-synuclein fibrils [4]
  IC50: 500.9 ± 1.1 nM
  Ki: 120 nM

## COc1ccc2c(c1)Oc1cccc([N+](=O)[O-])c1N2 [TZ-2-54, 7-methoxy-1-nitro-10H-phenoxazine]
α-synuclein fibrils [4]
  IC50: 686.9 ± 1.2 nM
  Ki: 165 nM

## O=[N+]([O-])c1ccc2c(c1)Sc1cc(OCC[18F])ccc1N2 [[^18F]SIL26]
[5]; blood, 5 min, male Sprague-Dawley rats
  Biodistribution: 0.553 ± 0.047 I.D. %/gram
[5]; blood, 30 min, male Sprague-Dawley rats
  Biodistribution: 0.589 ± 0.016 I.D. %/gram
[5]; blood, 60 min, male Sprague-Dawley rats
  Biodistribution: 0.606 ± 0.035 I.D. %/gram
[5]; blood, 120 min, male Sprague-Dawley rats
  Biodistribution: 0.585 ± 0.046 I.D. %/gram
[5]; bone uptake from 5 to 60 min
  defluorination: no defluorination was observed
[5]; bone, 5 min, male Sprague-Dawley rats
  Biodistribution: 0.340 ± 0.027 I.D. %/gram
[5]; bone, 30 min, male Sprague-Dawley rats
  Biodistribution: 0.309 ± 0.020 I.D. %/gram
[5]; bone, 60 min, male Sprague-Dawley rats
  Biodistribution: 0.407 ± 0.043 I.D. %/gram
[5]; bone, 120 min, male Sprague-Dawley rats
  Biodistribution: 0.644±0.071 I.D. %/gram
[5]; 5 min post i.v. injection
  brain uptake: 0.758±0.013 % I.D./g
[5]; 30 min post i.v. injection
  brain uptake: 0.465±0.018 % I.D./g
[5]; 60 min post i.v. injection
  brain uptake: 0.410±0.030 % I.D./g
[5]; 120 min post i.v. injection
  brain uptake: 0.359±0.016 % I.D./g
[5]; fat, 5 min, male Sprague-Dawley rats
  Biodistribution: 0.255 ± 0.037 I.D. %/gram
[5]; fat, 30 min, male Sprague-Dawley rats
  Biodistribution: 0.425 ± 0.023 I.D. %/gram
[5]; fat, 60 min, male Sprague-Dawley rats
  Biodistribution: 0.371 ± 0.067 I.D. %/gram
[5]; fat, 120 min, male Sprague-Dawley rats
  Biodistribution: 0.293 ± 0.048 I.D. %/gram
[5]; heart, 5 min, male Sprague-Dawley rats
  Biodistribution: 0.757 ± 0.033 I.D. %/gram
[5]; heart, 30 min, male Sprague-Dawley rats
  Biodistribution: 0.505 ± 0.015 I.D. %/gram
[5]; heart, 60 min, male Sprague-Dawley rats
  Biodistribution: 0.466 ± 0.040 I.D. %/gram
[5]; heart, 120 min, male Sprague-Dawley rats
  Biodistribution: 0.410 ± 0.030 I.D. %/gram
[5]; kidney, 5 min, male Sprague-Dawley rats
  Biodistribution: 1.070 ± 0.058 I.D. %/gram
[5]; kidney, 30 min, male Sprague-Dawley rats
  Biodistribution: 0.988 ± 0.090 I.D. %/gram
[5]; kidney, 60 min, male Sprague-Dawley rats
  Biodistribution: 0.678 ± 0.032 I.D. %/gram
[5]; kidney, 120 min, male Sprague-Dawley rats
  Biodistribution: 0.659 ± 0.027 I.D. %/gram
[5]; liver, 5 min, male Sprague-Dawley rats
  Biodistribution: 1.626±0.221 I.D. %/gram
[5]; liver, 30 min, male Sprague-Dawley rats
  Biodistribution: 0.847 ± 0.027 I.D. %/gram
[5]; liver, 60 min, male Sprague-Dawley rats
  Biodistribution: 0.561 ± 0.028 I.D. %/gram
[5]; liver, 120 min, male Sprague-Dawley rats
  Biodistribution: 0.467 ± 0.023 I.D. %/gram
[5]; lung, 5 min, male Sprague-Dawley rats
  Biodistribution: 0.833 ± 0.053 I.D. %/gram
[5]; lung, 30 min, male Sprague-Dawley rats
  Biodistribution: 0.561 ± 0.021 I.D. %/gram
[5]; lung, 60 min, male Sprague-Dawley rats
  Biodistribution: 0.491 ± 0.030 I.D. %/gram
[5]; lung, 120 min, male Sprague-Dawley rats
  Biodistribution: 0.436 ± 0.018 I.D. %/gram
[5]; male Sprague-Dawley rats, i.v.
  ability to cross the blood-brain-barrier (BBB): able to cross BBB
[5]; muscle, 5 min, male Sprague-Dawley rats
  Biodistribution: 0.430 ± 0.031 I.D. %/gram
[5]; muscle, 30 min, male Sprague-Dawley rats
  Biodistribution: 0.451 ± 0.018 I.D. %/gram
[5]; muscle, 60 min, male Sprague-Dawley rats
  Biodistribution: 0.376 ± 0.019 I.D. %/gram
[5]; muscle, 120 min, male Sprague-Dawley rats
  Biodistribution: 0.315 ± 0.015 I.D. %/gram
[5]; pancreas, 5 min, male Sprague-Dawley rats
  Biodistribution: 1.004 ± 0.147 I.D. %/gram
[5]; pancreas, 30 min, male Sprague-Dawley rats
  Biodistribution: 0.546 ± 0.068 I.D. %/gram
[5]; pancreas, 60 min, male Sprague-Dawley rats
  Biodistribution: 0.409 ± 0.029 I.D. %/gram
[5]; pancreas, 120 min, male Sprague-Dawley rats
  Biodistribution: 0.330 ± 0.021 I.D. %/gram
[5]; spleen, 5 min, male Sprague-Dawley rats
  Biodistribution: 0.672 ± 0.064 I.D. %/gram
[5]; spleen, 30 min, male Sprague-Dawley rats
  Biodistribution: 0.509 ± 0.022 I.D. %/gram
[5]; spleen, 60 min, male Sprague-Dawley rats
  Biodistribution: 0.446 ± 0.038 I.D. %/gram
[5]; spleen, 120 min, male Sprague-Dawley rats
  Biodistribution: 0.398 ± 0.019 I.D. %/gram

## O=[N+]([O-])c1ccc2c(c1)Sc1cc(OC/C=C/[125I])ccc1N2 [[^125I]SIL23]
Aβ1-42 fibrils [6]; Aβ1-42 fibrils
  Bmax: 23.7 pmol/nmol
  Kd: 635 nM
Aβ1-42 fibrils [6]; Aβ1-42 fibrils versus α-synuclein fibrils
  affinity lower than that observed for α-synuclein fibrils: 5 fold
Tau fibrils; tau fibrils
  Bmax: 4.57 pmol/nmol
  Kd: 230 nM
Tau fibrils; tau fibrils versus α-synuclein fibrils
  affinity lower than α-synuclein fibrils: approximately 2 fold
